{"source": "patent US11976083B2", "about": "“Inhibitors of peptidylarginine deiminases” (Gilead Sciences, Inc., priority 2020, dated 2024)", "data": [{"molecular_target": "T1, human PAD4 (Homo sapiens, UniProt Q9UM07)", "T1 construct": "human PAD4 (NM_012387), A2-P663, was PCR amplified; His-SUMO (N, cleaved yes); made in house; host or cells: E. coli BL21(DE3)", "T1 sequence (Q9UM07 2-663)": "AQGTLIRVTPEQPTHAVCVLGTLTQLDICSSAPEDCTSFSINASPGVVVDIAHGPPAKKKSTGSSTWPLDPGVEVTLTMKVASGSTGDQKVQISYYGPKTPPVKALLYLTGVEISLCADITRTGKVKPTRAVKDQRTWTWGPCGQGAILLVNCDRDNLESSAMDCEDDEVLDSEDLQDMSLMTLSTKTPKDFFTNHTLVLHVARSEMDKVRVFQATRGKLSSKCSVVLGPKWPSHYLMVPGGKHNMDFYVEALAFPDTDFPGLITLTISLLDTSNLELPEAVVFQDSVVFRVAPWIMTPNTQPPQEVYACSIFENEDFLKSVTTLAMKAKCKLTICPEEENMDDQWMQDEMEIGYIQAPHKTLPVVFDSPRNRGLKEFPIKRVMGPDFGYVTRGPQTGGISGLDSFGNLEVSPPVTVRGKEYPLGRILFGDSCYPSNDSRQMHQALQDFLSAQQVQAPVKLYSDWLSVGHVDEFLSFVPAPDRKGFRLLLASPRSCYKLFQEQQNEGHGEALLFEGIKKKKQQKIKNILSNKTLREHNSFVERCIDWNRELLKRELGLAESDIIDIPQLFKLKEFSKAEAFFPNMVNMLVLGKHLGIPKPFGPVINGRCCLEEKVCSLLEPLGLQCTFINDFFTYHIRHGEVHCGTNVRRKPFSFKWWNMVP", "assay": "In vitro PAD4 BAEE biochemical assay", "details": "BAEE substrate 3 mM, 5 nM PAD4, 2 mM calcium chloride; geometric mean of multiple experiments", "summary_of_the_method": "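Assay was run at 25 °C using 3 mM BAEE and 5 nM human PAD4 after a 30 min compound preincubation; ammonia produced over 2 h was quantified by OPA-derived fluorescence. Full inhibition was defined by 50 µM BB-Cl-Amidine, and IC50 came from variable-slope nonlinear regression.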", "units": {"IC50": "nM"}, "values": [{"smiles": "COc1cc(C(=O)N2C[C@H](N)[C@@H]3CC[C@H]2C3)cc2nc(-c3cc4ccc5nc4n3CCCCC[C@]3(F)C[C@H]3C(=O)N[C@@H]5C)n(C)c12", "note": "[Example 451, (2~{R},5~{S},7~{S})-14-[5-[(1~{S},4~{R},5~{R})-4-amino-2-azabicyclo[3.2.1]octane-2-carbonyl]-7-methoxy-1-methyl-benzimidazol-2-yl]-7-fluoro-2-methyl-3,13,19-triazatetracyclo[11.5.2.0^{5,7}.0^{16,20}] icosa-1(19),14,16(20),17-tetraen-4-one]", "IC50": 19}, {"smiles": "C[C@H]1NC(=O)c2ccc(Cl)nc2CCCCCn2c(-c3nc4cc(C(=O)N5C[C@H](N)[C@@H]6CC[C@H]5C6)cc(F)c4n3[C@@H]3C[C@@H]3F)cc3ccc1nc32", "note": "[Example 452, (2~{R})-17-[(1~{R})-5-[(1~{S},4~{R},5~{R})-4-amino-2-azabicyclo[3.2.1]octane-2-carbonyl]-7-fluoro-1-[(2~{S})-2-fluorocyclopropyl]benzimidazol-2-yl]-8-chloro-2-methyl-3,9,16,22-tetrazatetracyclo[14.5.2.0^{5,10).0^{19,23}] tricosa-1(22),5(10),6,8,17,19(23),20-heptaen-4-one]", "IC50": 37}, {"smiles": "C[C@H]1NC(=O)[C@@H]2C[C@H]2CCCC(F)(F)Cn2c(-c3nc4cc(C(=O)N5C[C@H](N)[C@@H]6CC[C@H]5C6)cc(F)c4n3[C@@H]3C[C@H]3C(F)F)cc3ccc1nc32", "note": "[Example 454, (2~{R},5~{R},7~{R})-14-[5-[(1~{S),4~{R},5~{R})-4-amino-2-azabicycło[3.2.1]octane-2-carbonyl]-1-[(1~{R},2~{R})-2-(difluoromethyl)cyclopropyl]-7-fluoro-benzimidazol-2-yl]-11,11-difluoro-2-methyl-3,13,19-triazatetracyclo[11.5.2.0^{5,7}.0^{16,20}] icosa-1(19),14,16(20),17-tetraen-4-one]", "IC50": 31}, {"smiles": "C[C@H]1NC(=O)[C@@H]2C[C@H]2CCCC(F)(F)Cn2c(-c3nc4cc(C(=O)N5C[C@H](N)[C@@H]6CC[C@H]5C6)c(F)cc4n3C3CC3)cc3ccc1nc32", "note": "[Example 455, (2~{R},5~{R},7~{R})-14-[5-[(1~{S},4~{R},5~{R})-4-amino-2-azabicyclo[3.2.1]octane-2-carbonyl]-1-cyclopropyl-6-fluoro-benzimidazol-2-yl]-11,11-difluoro-2-methyl-3,13,19-triazatetracyclo[11.5.2.0^{5,7}.0^{16,20}] icosa-1(19),14,16(20),17-tetraen-4-one]", "IC50": 36}, {"smiles": "C[C@H]1NC(=O)c2ccc(Cl)nc2CCCCCn2c(-c3nc4cc(C(=O)N5C[C@H](N)[C@@H]6CC[C@H]5C6)c(F)c(F)c4n3C3CC3)cc3ccc1nc32", "note": "[Example 456, (2~{R})-17-[5-[(1~{S},4~{R},5~{R})-4-amino-2-azabicyclo[3.2.1]octane-2-carbonyl]-1-cyclopropyl-6,7-difluoro-benzimidazol-2-yl]-8-chloro-2-methyl-3,9,16,22-tetrazatetracyclo[14.5.2.0^{5,10}.0^{19,23}] tricosa-1(22),5(10),6,8,17,19(23),20-heptaen-4-one]", "IC50": 57}, {"smiles": "C[C@H]1NC(=O)c2c(ncc3ccccc23)CCCCCn2c(-c3nc4cc(C(=O)N5C[C@H](N)[C@@H]6CC[C@H]5C6)cc(F)c4n3C3CC3)cc3ccc1nc32", "note": "[Example 457, (2~{R})-21-[5-[(1~{S),4~{R},5~{R})-4-amino-2-azabicyclo[3.2.1]octane-2-carbonyl]-1-cyclopropyl-7-fluoro-benzimidazol-2-yl]-2-methyl-3,13,20,26-tetrazapentacyclo[18.5.2.0^{5,14}.0^ {6,11}.0^{23,27}]heptacosa-1(26),5(14),6(11),7,9,12,21,23(27),24-nonaen-4-one]", "IC50": 38}, {"smiles": "C[C@H]1NC(=O)[C@@H]2C[C@H]2CCCCCn2c(-c3nc4cc(C(=O)N5C[C@H](N)[C@@H]6CC[C@H]5C6)cnc4n3C3CC3)cc3ccc1nc32", "note": "[Example 458, (2~{R},5~{R},7~{R})-14-[6-[(1~{S),4~{R},5~{R})-4-amino-2-azabicyclo[3.2.1]octane-2-carbonyl]-3-cyclopropyl-imidazo[4,5-b]pyridin-2-yl]-2-methyl-3,13,19-triazatetracyclo[11.5.2.0^{5,7}.0^{16,20}] icosa-1(19),14,16(20),17-tetraen-4-one]", "IC50": 23}, {"smiles": "COc1cc(C(=O)N2C[C@H](N)[C@@H]3CC[C@H]2C3)cc2nc(-c3cc4ccc5nc4n3CC(F)(F)CCCC[C@](C)(C(F)(F)F)C(=O)N[C@@H]5C)n(C)c12", "note": "[Example 459, (8~{S},11~{R})-17-[5-[(1~{S},4~{R},5~{R})-4-amino-2-azabicyclo[3.2.1]octane-2-carbonyl]-7-methoxy-1-methyl-benzimidazol-2-yl]-3,3-difluoro-8,11-dimethyl-8-(trifluoromethyl)-1,10,19-triazatricyclo[10.5.2.0^{15,18}]nonadeca-12(19),13,15(18),16-tetraen-9-one]", "IC50": 130}, {"smiles": "COc1cc(C(=O)N2C[C@H](N)[C@@H]3CC[C@H]2C3)cc2nc(-c3cc4ccc5nc4n3CC(F)(F)CCCOC(C)(C)C(=O)N[C@@H]5C)n(C)c12", "note": "[Example 460, (11~{R})-17-[5-[(1~{S},4~{R},5~{R})-4-amino-2-azabicyclo[3.2.1]octane-2-carbonyl]-7-methoxy-1-methyl-benzimidazol-2-yl]-3,3-difluoro-8,8,11-trimethyl-7-oxa-1,10,19-triazatricyclo[10.5.2.0^{15,18}]nonadeca-12(19),13,15(18),16-tetraen-9-one]", "IC50": 71}, {"smiles": "COc1cc(C(=O)N2C[C@H](N)[C@@H]3CC[C@H]2C3)cc2nc(-c3cc4ccc5nc4n3CCCCCc3cc4ccccc4nc3C(=O)N[C@@H]5C)n(C)c12", "note": "[Example 461, (2~{R})-21-[5-[(1~{S},4~{R},5~{R})-4-amino-2-azabicyclo[3.2.1]octane-2-carbonyl]-7-methoxy-1-methyl-benzimidazol-2-yl]-2-methyl-3,6,20,26-tetrazapentacyclo[18.5.2.0^ {5,14}.0^{7,12}.0^ {23,27}]heptacosa-1(26),5(14),6,8,10,12,21,23(27),24-nonaen-4-one]", "IC50": 51}, {"smiles": "C[C@H]1NC(=O)C(C)(C)CCCCCCn2c(-c3nc4cc(C(=O)N5C[C@H](N)[C@@H]6CC[C@H]5C6)cc(F)c4n3C3CC3)cc3ccc1cc32", "note": "[Example 462, (11~{R})-17-[5-[(1~{S},4~{R},5~{R})-4-amino-2-azabicyclo[3.2.1]octane-2-carbonyl]-1-cyclopropyl-7-fluoro-benzimidazol-2-yl]-8,8,11-trimethyl-1,10-diazatricyclo[10.5.2.0^{15,18}]nonadeca-12(19),13,15(18),16-tetraen-9-one]", "IC50": 31}, {"smiles": "COc1cc(C(=O)N2C[C@H](N)[C@@H]3CC[C@H]2C3)cc2nc(-c3cc4cc(F)c5cc4n3CC(F)(F)CCC[C@@H]3C[C@H]3C(=O)N[C@@H]5C)n(C)c12", "note": "[Example 463, (2~{R},5~{R},7~{R})-14-[5-[(1~{S},4~{R},5~{R})-4-amino-2-azabicyclo[3.2.1]octane-2-carbonyl]-7-methoxy-1-methyl-benzimidazol-2-yl]-11,11,18-trifluoro-2-methyl-3,13-diazatetracyclo[11.5.2.0^{5,7}.0^{16,20}] icosa-1(19),14,16(20),17-tetraen-4-one]", "IC50": 29}, {"smiles": "C[C@H]1NC(=O)[C@@H]2C[C@H]2CCCC(F)(F)Cn2c(-c3nc4cc(C(=O)N5C[C@H](N)[C@@H]6CC[C@H]5C6)cc(F)c4n3C3CC3)cc3cc(F)c1cc32", "note": "[Example 464, (2~{R},5~{R},7~{R})-14-[5-[(1~{S},4~{R},5~{R})-4-amino-2-azabicyclo[3.2.1]octane-2-carbonyl]-1-cyclopropyl-7-fluoro-benzimidazol-2-yl]-11,11,18-trifluoro-2-methyl-3,13-diazatetracyclo[11.5.2.0^{5,7}.0^{16,20}] icosa-1(19),14,16(20),17-tetraen-4-one]", "IC50": 28}, {"smiles": "COc1cc(C(=O)N2C[C@H](N)[C@@H]3CC[C@H]2C3)cc2nc(-c3cc4ccc5cc4n3CCCCCCC(C)(C)C(=O)N[C@@H]5C)n(C)c12", "note": "[Example 465, (11~{R})-17-[5-[(1~{S},4~{R},5~{R})-4-amino-2-azabicyclo[3.2.1]octane-2-carbonyl]-7-methoxy-1-methyl-benzimidazol-2-yl]-8,8,11-trimethyl-1,10-diazatricyclo[10.5.2.0^{15,18}]nonadeca-12(19),13,15(18),16-tetraen-9-one]", "IC50": 23}, {"smiles": "C[C@H]1NC(=O)[C@@H]2C[C@H]2CCCC(F)(F)Cn2c(-c3nc4cc(C(=O)N5C[C@H](N)[C@@H]6CC[C@H]5C6)c(F)c(F)c4n3C3CC3)cc3ccc1nc32", "note": "[Example 466, (2~{R},5~{R},7~{R})-14-[5-[(1~{S),4~{R},5~{R})-4-amino-2-azabicyclo[3.2.1]octane-2-carbonyl]-1-cyclopropyl-6,7-difluoro-benzimidazol-2-yl]-11,11-difluoro-2-methyl-3,13,19-triazatetracyclo[11.5.2.0^{5,7}.0^{16,20}] icosa-1(19),14,16(20),17-tetraen-4-one]", "IC50": 55}, {"smiles": "C[C@H]1NC(=O)[C@@H]2C[C@H]2CCCC(F)(F)Cn2c(-c3nc4cc(C(=O)N5C[C@H](N)[C@@H]6CC[C@H]5C6)cc(F)c4n3[C@@H]3C[C@@H]3F)cc3ccc1nc32", "note": "[Example 467, (2~{R},5~{R},7~{R})-14-[(1~{R})-5-[(1~{S},4~{R},5~{R})-4-amino-2-azabicyclo[3.2.1]octane-2-carbonyl]-7-fluoro-1-[(2~{S})-2-fluorocyclopropyl]benzimidazol-2-yl]-11,11-difluoro-2-methyl-3,13,19-triazatetracyclo[11.5.2.0^{5,7}.0^{16,20}] icosa-1(19),14,16(20),17-tetraen-4-one]", "IC50": 27}]}]}
